Consider 51 compounds from US20220281831A1, “FUSED-GLUTARIMIDE CRBN LIGANDS AND USES THEREOF” (Kymera Therapeutics, Inc., priority 2019, published 2022).

In test [1] the target is His-tagged CRBN-DDB1 complex (Homo sapiens, UniProt Q96SW2). The experiment in a line: Time-Resolved Fluorescence Resonance Energy Transfer (TR-FRET / HTRF) CRBN binding assay, displacement of Cy5-labeled thalidomide. The settings on record: His-CRBN-DDB1, Cy5-thalidomide 8 nM, 1 hour room temperature.
The target in the next test is CRBN-DDB1 (Homo sapiens, UniProt Q96SW2). Kind of test: Fluorescence Polarization (FP) CRBN binding assay, probe TM-493 (FAM-BB-100). The note with it: CRBN-DDB1, TM-493 probe, 60 min room temperature. How it is done: Fluorescence Polarization (FP) Assay
Materials: PerkinElmer EnVision 2104 Multilabel Reader, PerkinElmer FITC FP dual emission Label 2100-8060, Corning 384-well microplate #4514, V-CMR-TM-493 (FAM-BB-100), and CRBN-DDB1-180605.
Methods: Dilution buffer (50 mM HEPES-Na pH 7.5, 100 mM NaCl, 2 mM DTT, and 0.005% Tween-20) and compound DMSO dilutions were prepared. 4× compound working solutions were made with 8% DMSO (4×) and 13.8 μL/well of dilution buffer was placed in a new 96-well plate and 1.2 μL/well of above compound DMSO dilutions were added to the wells. 40 nM (4×) TM-493 in dilution buffer was prepared from a 10 μM DMSO stock and 15 μL per well of the TM-493 working solution was transferred into the compound working solution. 160 nM (2×) CRBN-DDB1 working solution was prepared with Dilution Buffer and 10 μL/well were added into a 384-well plate. 10 μL per well of the TM-493/compound mixture were transferred into the 384-well plate. The “positive control” was sample without protein and compound in 2% DMSO. After incubation at room temperature for 60 min, data was collected and read on data on an EnVision with the following setting: Excitation Light (%): 100; Measurement Height: 9.4; G-Factor: 1; Detector Gain 1: 200; Detector Gain 2: 200; Flash Number: 100. Data was processed using GraphPad Prism 7.0
The compound numbers correspond to the compound numbers in Table 1.

Sequence of CRBN-DDB1 (Q96SW2 whole entry): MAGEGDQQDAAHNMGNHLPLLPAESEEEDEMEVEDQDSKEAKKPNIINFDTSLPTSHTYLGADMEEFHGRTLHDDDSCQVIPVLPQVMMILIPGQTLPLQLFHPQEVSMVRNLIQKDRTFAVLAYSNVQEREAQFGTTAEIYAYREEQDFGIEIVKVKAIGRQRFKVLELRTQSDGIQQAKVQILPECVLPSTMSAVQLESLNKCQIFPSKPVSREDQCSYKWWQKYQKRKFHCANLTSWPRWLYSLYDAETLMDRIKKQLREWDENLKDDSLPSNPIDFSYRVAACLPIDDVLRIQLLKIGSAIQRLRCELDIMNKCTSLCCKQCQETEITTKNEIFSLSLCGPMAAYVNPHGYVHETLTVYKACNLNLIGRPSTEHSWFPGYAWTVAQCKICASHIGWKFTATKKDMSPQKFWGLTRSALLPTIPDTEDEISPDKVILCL
Sequence of CRBN-DDB1 (Q16531 whole entry partner): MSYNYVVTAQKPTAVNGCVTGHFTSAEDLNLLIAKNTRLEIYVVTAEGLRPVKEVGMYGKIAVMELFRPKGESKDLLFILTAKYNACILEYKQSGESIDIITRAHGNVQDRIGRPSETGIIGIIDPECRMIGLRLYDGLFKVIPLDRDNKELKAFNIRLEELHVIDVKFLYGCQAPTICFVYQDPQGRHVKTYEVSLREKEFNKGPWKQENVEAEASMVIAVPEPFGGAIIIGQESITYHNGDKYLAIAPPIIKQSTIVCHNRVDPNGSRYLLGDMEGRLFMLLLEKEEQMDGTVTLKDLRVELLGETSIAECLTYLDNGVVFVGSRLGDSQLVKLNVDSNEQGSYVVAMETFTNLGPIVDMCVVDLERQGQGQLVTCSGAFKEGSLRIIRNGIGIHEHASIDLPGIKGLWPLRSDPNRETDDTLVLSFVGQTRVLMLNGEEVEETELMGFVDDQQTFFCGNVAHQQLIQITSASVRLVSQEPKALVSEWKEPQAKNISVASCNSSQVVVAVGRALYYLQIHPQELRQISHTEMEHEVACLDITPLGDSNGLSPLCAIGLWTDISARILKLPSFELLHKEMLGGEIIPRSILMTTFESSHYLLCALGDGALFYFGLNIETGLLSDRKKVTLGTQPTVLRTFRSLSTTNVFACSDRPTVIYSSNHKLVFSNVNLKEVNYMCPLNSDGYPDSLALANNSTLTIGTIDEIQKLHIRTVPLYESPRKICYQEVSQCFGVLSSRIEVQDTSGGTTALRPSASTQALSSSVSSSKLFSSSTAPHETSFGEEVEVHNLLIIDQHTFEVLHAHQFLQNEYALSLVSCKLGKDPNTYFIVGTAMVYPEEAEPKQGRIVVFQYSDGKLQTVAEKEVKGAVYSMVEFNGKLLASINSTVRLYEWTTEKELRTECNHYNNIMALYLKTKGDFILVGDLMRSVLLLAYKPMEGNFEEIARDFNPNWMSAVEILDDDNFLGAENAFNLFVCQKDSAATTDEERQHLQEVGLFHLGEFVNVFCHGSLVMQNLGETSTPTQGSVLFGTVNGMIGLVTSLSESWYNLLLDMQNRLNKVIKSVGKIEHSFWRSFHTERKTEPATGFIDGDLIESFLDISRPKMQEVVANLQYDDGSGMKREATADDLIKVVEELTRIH
Sequence of His-tagged CRBN-DDB1 complex (Q96SW2 whole entry): as the sequence (Q96SW2 whole entry) above
Sequence of His-tagged CRBN-DDB1 complex (Q16531 whole entry partner): as the sequence (Q16531 whole entry partner) above

As for `CC(C)(C)OC(=O)NCCCC#Cc1cccc(Oc2cccc3c2C(=O)NC(=O)C3)c1` [Compound I-221], the IC50 in test [1] is less than 10 µM; at CRBN-DDB1 it was greater than 100 µM.

As to `CC(C)(C)OC(=O)NCCCCCc1cccc(Oc2cccc3c2C(=O)NC(=O)C3)c1` [Compound I-222], the IC50 (in test [1]; on CRBN-DDB1) was 30 to 100 µM each time.

Turning to `CC(C)(C)OC(=O)NCCCCCC#Cc1cccc(Oc2cccc3c2C(=O)NC(=O)C3)c1` [Compound I-223], the IC50 (in test [1]; at CRBN-DDB1) was 30 to 100 µM each time.

For `CC(C)(C)OC(=O)NCCCCCCCc1cccc(Oc2cccc3c2C(=O)NC(=O)C3)c1` [Compound I-224], the IC50 in test [1] was less than 10 µM; on CRBN-DDB1, greater than 100 µM.

Turning to `CC(C)(C)OC(=O)NCCCCCCCC#Cc1cccc(Oc2cccc3c2C(=O)NC(=O)C3)c1` [Compound I-225], the IC50 (in test [1]; at CRBN-DDB1) was greater than 100 µM in each case.

As for `CC(C)(C)OC(=O)NCCCCCCCCCc1cccc(Oc2cccc3c2C(=O)NC(=O)C3)c1` [Compound I-226], the IC50 (in test [1]; at CRBN-DDB1) was greater than 100 µM throughout.

Take `CC(C)(C)OC(=O)NCCCc1ccc(Oc2cccc3c2C(=O)NC(=O)C3)cc1` [Compound I-227]: the IC50 in test [1] was less than 10 µM; at CRBN-DDB1, greater than 100 µM.

For the compound `CC(C)(C)OC(=O)NCCCC#Cc1ccc(Oc2cccc3c2C(=O)NC(=O)C3)cc1` [Compound I-228], the IC50 (in test [1]; at CRBN-DDB1) was greater than 100 µM each time.

With `CC(C)(C)OC(=O)NCCCCCc1ccc(Oc2cccc3c2C(=O)NC(=O)C3)cc1` [Compound I-229], the IC50 (in test [1]; at CRBN-DDB1) was greater than 100 µM throughout.

With `CC(C)(C)OC(=O)NCCCCCC#Cc1ccc(Oc2cccc3c2C(=O)NC(=O)C3)cc1` [Compound I-230], the IC50 (in test [1]; on CRBN-DDB1) was greater than 100 µM in each case.

In the case of `CC(C)(C)OC(=O)NCCCCCCCc1ccc(Oc2cccc3c2C(=O)NC(=O)C3)cc1` [Compound I-231], the half-inhibitory concentration (IC50) (in test [1]; on CRBN-DDB1) was greater than 100 µM throughout.

Turning to `CC(C)(C)OC(=O)NCCCCCCCC#Cc1ccc(Oc2cccc3c2C(=O)NC(=O)C3)cc1` [Compound I-232], the IC50 (in test [1]; at CRBN-DDB1) was greater than 100 µM in each case.

Consider `CC(C)(C)OC(=O)NCCCCCCCCCc1ccc(Oc2cccc3c2C(=O)NC(=O)C3)cc1` [Compound I-233], for which the IC50 (in test [1]; at CRBN-DDB1) was greater than 100 µM in each case.

Take `CC(C)(C)OC(=O)NCCCCCC#Cc1cccc(Oc2cccc3c2C(=O)NC(=O)C3=O)c1` [Compound I-234]: the IC50 (in test [1]; on CRBN-DDB1) was less than 10 µM throughout.

With `O=C1Cc2cncc(Oc3ccccc3)c2C(=O)N1` [Compound I-235], the IC50 is less than 10 µM in test [1] and 10 to 30 µM on CRBN-DDB1.

In the case of `O=C1Cc2nccc(Oc3ccccc3)c2C(=O)N1` [Compound I-236], the IC50 (in test [1]; on CRBN-DDB1) was greater than 100 µM in each case.

On to `CC(C)(C)OC(=O)NCCCCCCCC#Cc1cccc(Oc2cccc3c2C(=O)NC(=O)C3=O)c1` [Compound I-237], for which the IC50 in test [1] was less than 10 µM; on CRBN-DDB1, 10 to 30 µM.

Take `O=C1NC(=O)c2cc(Oc3ccccc3)ccc2C1=O` [Compound I-238]: the IC50 (in test [1]; at CRBN-DDB1) was 30 to 100 µM each time.

With `CC(C)(C)OC(=O)NCCCC#Cc1ccc(Oc2cccc3c2C(=O)NC(=O)C3=O)cc1` [Compound I-239], the IC50 (in test [1]; on CRBN-DDB1) was less than 10 µM in each case.

`CC(C)(C)OC(=O)NCCCCCCCC#Cc1ccc(Oc2cccc3c2C(=O)NC(=O)C3=O)cc1` [Compound I-240]: the IC50 in test [1] is less than 10 µM; at CRBN-DDB1 it was 10 to 30 µM.

In the case of `CC(C)(C)OC(=O)NCCCCCCCCCc1ccc(Oc2cccc3c2C(=O)NC(=O)C3=O)cc1` [Compound I-241], the IC50 in test [1] is less than 10 µM; at CRBN-DDB1, 30 to 100 µM.

As for `CC(C)(C)OC(=O)NCCCCCCCC#Cc1ccccc1Oc1cccc2c1C(=O)NC(=O)C2=O` [Compound I-243], the IC50 in test [1] was less than 10 µM; on CRBN-DDB1 it was 30 to 100 µM.

For `NCC#Cc1cccc(Oc2cccc3c2C(=O)NC(=O)C3)c1` [Compound I-244], the IC50 in test [1] was in the range of 10 to 30 µM; on CRBN-DDB1, 30 to 100 µM.

Take `NCCCC#Cc1cccc(Oc2cccc3c2C(=O)NC(=O)C3)c1` [Compound I-245]: the values for the IC50 (in test [1]; on CRBN-DDB1) were less than 10 µM and 10 to 30 µM, respectively.

For the compound `NCCCCCc1cccc(Oc2cccc3c2C(=O)NC(=O)C3)c1` [Compound I-246], the IC50 (in test [1]; on CRBN-DDB1) was less than 10 µM each time.

`NCCCCCC#Cc1cccc(Oc2cccc3c2C(=O)NC(=O)C3)c1` [Compound I-247]: the IC50 is less than 10 µM in test [1] and 10 to 30 µM on CRBN-DDB1.

As to `NCCCCCCCC#Cc1cccc(Oc2cccc3c2C(=O)NC(=O)C3)c1` [Compound I-248], the IC50 in test [1] is greater than 100 µM; at CRBN-DDB1, 30 to 100 µM.

Turning to `NCCCCCc1ccc(Oc2cccc3c2C(=O)NC(=O)C3)cc1` [Compound I-249], the IC50 (in test [1]; on CRBN-DDB1) was 10 to 30 µM in each case.

Consider `NCCCCCCCc1ccc(Oc2cccc3c2C(=O)NC(=O)C3)cc1` [Compound I-250], for which the IC50 (in test [1]; on CRBN-DDB1) was less than 10 µM throughout.

Regarding `NCCCCCCCCCc1ccc(Oc2cccc3c2C(=O)NC(=O)C3)cc1` [Compound I-251], the IC50 (in test [1]; on CRBN-DDB1) was less than 10 µM in each case.

For `CC(C)(C)OC(=O)NCCCCCCCc1ccccc1Oc1cccc2c1C(=O)NC(=O)C2=O` [Compound I-252], the IC50 fell in the range of 10 to 30 µM in test [1] and 30 to 100 µM at CRBN-DDB1.

Regarding `Cc1ccccc1Oc1cccc2c1C(=O)NC(=O)C2=O` [Compound I-253], the figures for the IC50 (in test [1]; at CRBN-DDB1) were 10 to 30 µM and less than 10 µM, respectively.

`NCCCCCc1ccccc1Oc1cccc2c1C(=O)NC(=O)C2` [Compound I-254]: the IC50 in test [1] lay in the range of 10 to 30 µM; at CRBN-DDB1, 30 to 100 µM.

As to `NCCCCCCCCCc1ccccc1Oc1cccc2c1C(=O)NC(=O)C2` [Compound I-255], the half-inhibitory concentration (IC50) (in test [1]; on CRBN-DDB1) was 10 to 30 µM each time.

`O=C1Cc2cnn(Cc3ccccc3)c2C(=O)N1` [Compound I-257]: the IC50 (in test [1]; at CRBN-DDB1) was greater than 100 µM throughout.

As to `O=C1Cc2cccc(Cc3ccccc3)c2C(=O)N1` [Compound I-258], the results for the IC50 (in test [1]; on CRBN-DDB1) were greater than 100 µM and 30 to 100 µM, respectively.

On to `O=C1Cc2cccc(Oc3ccccn3)c2C(=O)N1` [Compound I-259], for which the figures for the IC50 (in test [1]; at CRBN-DDB1) were greater than 100 µM and 10 to 30 µM, respectively.

Regarding `CN1C(=O)Cc2cccc(Oc3ccccc3)c2C1=O` [Compound I-260], the IC50 (in test [1]; at CRBN-DDB1) was greater than 100 µM throughout.

With `NCCCC#Cc1ccc(Oc2cccc3c2C(=O)NC(=O)C3=O)cc1` [Compound I-264], the IC50 in test [1] is less than 10 µM; on CRBN-DDB1 it was 10 to 30 µM.

Take `NCCCC#Cc1ccc(Oc2cccc3c2C(=O)NC(=O)C3)cc1` [Compound I-265]: the IC50 (in test [1]; on CRBN-DDB1) was less than 10 µM throughout.

Take `O=C1NC(=O)c2c(Oc3cccnc3)cccc2C1=O` [Compound I-266]: the IC50 in test [1] was 10 to 30 µM; on CRBN-DDB1, less than 10 µM.

`CC(=O)NCc1cccc(Oc2cccc3c2C(=O)NC(=O)C3=O)c1` [Compound I-267]: the values for the IC50 (in test [1]; at CRBN-DDB1) were 10 to 30 µM and less than 10 µM, respectively.

Take `CC(=O)NCc1cccc(Oc2cccc3c2C(=O)NC(=O)C3)c1` [Compound I-268]: the results for the IC50 (in test [1]; at CRBN-DDB1) were 30 to 100 µM and 10 to 30 µM, respectively.

In the case of `CC(C)(C)OC(=O)NCc1cccc(Oc2cccc3c2C(=O)NC(=O)C3)c1` [Compound I-273], the IC50 (in test [1]; at CRBN-DDB1) was 10 to 30 µM throughout.

For `O=C1Cc2cccc(Oc3cccc4ccncc34)c2C(=O)N1` [Compound I-274], the IC50 (in test [1]; at CRBN-DDB1) was 30 to 100 µM each time.

Consider `O=C1Cc2cccc(Oc3cccc4ccccc34)c2C(=O)N1` [Compound I-275], for which the IC50 (in test [1]; at CRBN-DDB1) was 10 to 30 µM throughout.

As to `O=C1Cc2ccnc(Oc3ccccc3)c2C(=O)N1` [Compound I-276], the IC50 (in test [1]; at CRBN-DDB1) was 30 to 100 µM each time.

Take `O=C1Cc2cccc(COc3ccccc3)c2C(=O)N1` [Compound I-277]: the IC50 (in test [1]; on CRBN-DDB1) was 10 to 30 µM in each case.

Consider `O=C1Cc2cccc(CNc3ccccc3)c2C(=O)N1` [Compound I-278], for which the IC50 (in test [1]; at CRBN-DDB1) was 10 to 30 µM in each case.

In the case of `Cc1cccc(CN2C[C@@H]3C(=O)NC(=O)[C@@H]3C2)n1` [Compound I-292], the IC50 is 10 to 30 µM in test [1] and greater than 100 µM at CRBN-DDB1.

With `O=C1NC(=O)[C@@H]2CN(Cc3ccc(-c4ccccc4)cc3)C[C@H]12` [Compound I-319], the IC50 in test [1] was 30 to 100 µM; at CRBN-DDB1, greater than 100 µM.
